{"source": "patent US20230235017A1", "about": "“A DRUG SCREENING PLATFORM FOR ENDOSOMAL ENHANCERS TO TREAT ALZHEIMER'S DISEASE” (Aarhus Universitet, priority 2020, published 2023)", "origin": "cited, not measured here", "tested_on": "endosomal activity", "conditions": "shown in the literature (Mecozzi 2014); cited from earlier work", "data": [{"smiles": "N=C(N)SCc1ccc(CSC(=N)N)s1", "note": "[R55]", "values": [{"measurement": "effect on endosomal activity", "value": "have an effect on endosomal activity"}]}]}
